{
  "source": "patent US6878690B2",
  "about": "“Compounds and methods” (PharmAxis Pty Ltd., priority 2000, dated 2005)",
  "test_system": "myelin basic protein (MBP)-specific T lymphocyte cell lines",
  "assay": "Inhibition of T-lymphocyte migration across rat brain endothelial cell layer (Transwell, 51Cr-labelled cells)",
  "type": "cell-based, Lewis rats",
  "conditions": "test substance 10 mmolar in upper well; 6 hours; in comparison with the negative control (glucose 6-phosphate); triplicate",
  "from_the_text": "Vascular endothelial cells were isolated from rat brain capillaries taken from 6 to 8 week old Lewis rats according to the method of Risau et al. (Risau, W., Engelhardt, B., and Wekerle, H., (1990). Journal of Cell Biology, vol 110, p 1757-1766, which is incorporated herein by reference). Colonies of endothelial cells were purified from astroglial cells and pericytes by a Thy1.1-mediated complement lysis also after the method of Risau et al. (vide supra). The endothelial colonies, according to methods known in the art, were grown in Dulbecco's minimum essential medium (DMEM) high glucose supplemented, with 20% fetal calf serum (FCS), glutamine, pyruvate, nonessential amino acids, 4-(2-hydroxyethyl)-1-piperazine ethane sulfonic acid buffer (HEPES), kanamycin, amphotericin, heparin (all from Gibco) and 150 micrograms/ml endothelial growth supplement (Collaborative Biomedical Products). Upon reaching confluence, the endothelial cultures were washed with 0.2% EDTA in phosphate buffered saline (PBS), trypsinized (Trypsin-EDTA, 0.1% final concentration, Gibco), washed and again incubated with anti-Thy1.1 antibody for 40 minutes, washed and incubated with complement sufficient to lyse all Thy1.1+ cells (Behringwerke, AG, Marburg, Germany) at room temperature, washed and plated on matrigel-coated 6.5 mm Transwells, […] (Corning Costar Corporation, Cambridge, Mass.). The endothelial cell characteristics and confluence of the monolayer were checked by measuring the electrical resistance (World Precision Instruments, New Haven, U.S.A., model EVOM-G) and by staining with FITC-labeled phalloidin (Sigma). In order to study the effect of the agents of the present invention on T lymphocyte migration, myelin basic protein (MBP)-specific T lymphocyte cell lines were generated according to the method of Ben-Nun et al. (Ben-Nun, A., Wekerle, H. and Cohen, I. R., 1981). The rapid isolation of clonable antigen-specific T lymphocyte lines capable of mediating autoimmune encephalomyelitis. European Journal of Immunology. 1981, 11(3), 195-199; incorporated herein by reference) from the lymph nodes of Lewis rats that had been immunised with MBP in Freund's complete adjuvant. These cells were used for migration studies during the first 4 days of their propagation in IL-2 containing medium, following antigen (MBP) restimulation in the presence of antigen-presenting cells from irradiated spleen cells or thymocytes taken from normal Lewis rats. The antigen-activated T lymphocytes were radio-labelled with sodium chromate (^51Cr, 37 MBq/ml, Amersham, UK) for 30 minutes at 37° C. with occasional agitation, they were then washed three times with the DMEM culture medium and placed into the upper chamber of the Transwells at 5×10^5 cells in 100 microliters of migration medium. Test and control substance were included in the upper wells at final concentrations of 0.1, 1 and 10 mM. Cell migration was monitored by light microscopy in order to gauge progress of the experiment. […] The combined material was transferred into scintillation vials and the radioactivity of each tube determined by counting for 1 minute in a Packard Auto-Gamma 5650 (IL, USA) gamma counter. Each test and the control substance (glucose 6-phosphate) and no treatment were assessed in triplicate. […]",
  "data": [
    {"compound": "CCCC1OC(COP(=O)(O)O)C(O)C(O)C1O", "note": "(stereo not shown) [phosphoric acid mono-(6-propyl-3,4,5-trihydroxy-tetrahydro-pyran-2-ylmethyl) ester]", "values": [
      {"measurement": "% inhibition ± SEM", "value": "64 ± 4", "unit": "%"}
    ]}
  ]
}
